Where “and” joins values, the source holds several entries; their conditions need not be identical. Equal values may be shown once.
How the values were obtained:
[1] = target: Sodium-dependent noradrenaline transporter (Homo sapiens, UniProt P23975)
[2] = target: T1, 5-hydroxytryptamine receptor 2C (Homo sapiens, UniProt P28335)
T1 sequence (P28335 whole entry): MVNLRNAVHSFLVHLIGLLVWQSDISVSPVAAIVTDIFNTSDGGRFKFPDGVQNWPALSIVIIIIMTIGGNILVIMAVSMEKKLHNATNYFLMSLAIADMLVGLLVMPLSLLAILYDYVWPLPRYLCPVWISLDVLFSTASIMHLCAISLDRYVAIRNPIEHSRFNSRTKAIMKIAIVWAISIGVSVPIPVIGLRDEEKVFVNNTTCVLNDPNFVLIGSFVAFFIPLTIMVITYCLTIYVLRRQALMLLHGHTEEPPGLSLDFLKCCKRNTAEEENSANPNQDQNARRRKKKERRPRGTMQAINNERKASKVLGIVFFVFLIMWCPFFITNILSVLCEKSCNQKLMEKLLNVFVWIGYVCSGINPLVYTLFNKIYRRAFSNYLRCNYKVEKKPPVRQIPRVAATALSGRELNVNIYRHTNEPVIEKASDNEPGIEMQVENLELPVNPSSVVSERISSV

[3] = target: Growth hormone secretagogue receptor type 1 (Homo sapiens, UniProt Q92847)
[4] = target: T2, 5-hydroxytryptamine receptor 3A (Homo sapiens, UniProt P46098); type: functional
T2 sequence (P46098 whole entry): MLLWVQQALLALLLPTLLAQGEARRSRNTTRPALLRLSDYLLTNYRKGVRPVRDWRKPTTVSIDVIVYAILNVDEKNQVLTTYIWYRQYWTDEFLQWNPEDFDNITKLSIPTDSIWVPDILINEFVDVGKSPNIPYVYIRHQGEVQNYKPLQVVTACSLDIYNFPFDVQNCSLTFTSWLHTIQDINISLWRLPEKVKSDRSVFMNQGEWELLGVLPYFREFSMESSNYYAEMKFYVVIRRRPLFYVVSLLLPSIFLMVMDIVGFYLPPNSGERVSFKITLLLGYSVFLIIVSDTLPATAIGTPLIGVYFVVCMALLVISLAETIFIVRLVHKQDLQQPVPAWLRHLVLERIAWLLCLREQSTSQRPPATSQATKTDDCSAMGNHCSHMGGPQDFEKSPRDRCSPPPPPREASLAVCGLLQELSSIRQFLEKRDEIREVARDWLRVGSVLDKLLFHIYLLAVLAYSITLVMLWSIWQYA

B2 bradykinin receptor = target: T3, B2 bradykinin receptor (Homo sapiens, UniProt P30411)
T3 sequence (P30411 whole entry): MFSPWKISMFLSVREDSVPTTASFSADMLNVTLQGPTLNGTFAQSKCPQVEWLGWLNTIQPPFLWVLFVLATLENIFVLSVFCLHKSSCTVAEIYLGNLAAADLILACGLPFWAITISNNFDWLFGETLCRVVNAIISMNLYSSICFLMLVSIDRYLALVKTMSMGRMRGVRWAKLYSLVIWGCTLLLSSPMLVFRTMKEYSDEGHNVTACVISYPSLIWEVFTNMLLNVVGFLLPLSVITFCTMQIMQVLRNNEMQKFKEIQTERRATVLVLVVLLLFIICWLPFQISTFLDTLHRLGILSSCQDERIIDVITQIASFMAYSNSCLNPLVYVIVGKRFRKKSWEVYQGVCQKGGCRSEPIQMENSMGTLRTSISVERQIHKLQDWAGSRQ

[5] = target: 3',5'-cyclic-AMP phosphodiesterase 4D (Homo sapiens, UniProt Q08499); type: functional
[6] = target: T4, Gastrin/cholecystokinin type B receptor (Homo sapiens, UniProt P32239)
T4 sequence (P32239 whole entry): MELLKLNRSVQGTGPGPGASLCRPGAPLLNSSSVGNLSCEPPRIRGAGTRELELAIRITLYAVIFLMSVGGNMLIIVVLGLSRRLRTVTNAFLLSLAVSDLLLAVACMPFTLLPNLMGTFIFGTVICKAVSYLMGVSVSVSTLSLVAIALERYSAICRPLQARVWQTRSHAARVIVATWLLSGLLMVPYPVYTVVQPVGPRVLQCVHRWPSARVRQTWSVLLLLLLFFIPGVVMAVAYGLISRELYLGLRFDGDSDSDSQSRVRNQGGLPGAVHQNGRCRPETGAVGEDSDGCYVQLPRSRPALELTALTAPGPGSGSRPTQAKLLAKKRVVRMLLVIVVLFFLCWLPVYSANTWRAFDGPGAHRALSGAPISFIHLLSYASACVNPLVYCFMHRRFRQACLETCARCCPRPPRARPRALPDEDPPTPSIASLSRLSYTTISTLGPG

[7] = target: Sodium-dependent dopamine transporter (Homo sapiens, UniProt Q01959)
[8] = target: T5, Alpha-1A adrenergic receptor (Homo sapiens, UniProt P35348); type: functional, cell-based
T5 sequence (P35348 whole entry): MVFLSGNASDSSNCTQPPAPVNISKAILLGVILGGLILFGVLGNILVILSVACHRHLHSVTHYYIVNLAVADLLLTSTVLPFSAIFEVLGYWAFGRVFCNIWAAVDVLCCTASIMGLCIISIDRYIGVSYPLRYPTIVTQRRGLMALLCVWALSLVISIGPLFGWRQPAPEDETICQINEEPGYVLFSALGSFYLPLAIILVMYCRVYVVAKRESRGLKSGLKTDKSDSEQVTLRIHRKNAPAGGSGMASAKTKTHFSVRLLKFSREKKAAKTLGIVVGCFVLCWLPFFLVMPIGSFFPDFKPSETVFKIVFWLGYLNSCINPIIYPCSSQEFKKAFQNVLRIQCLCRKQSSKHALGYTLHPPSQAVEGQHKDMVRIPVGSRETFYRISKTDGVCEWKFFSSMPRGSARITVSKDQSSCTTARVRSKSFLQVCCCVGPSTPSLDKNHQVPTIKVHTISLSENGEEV

Histamine H2 receptor = Histamine H2 receptor (Homo sapiens, UniProt P25021); type: functional, cell-based
Further: assay procedure not described here.

Sequence of Sodium-dependent dopamine transporter (Q01959 whole entry): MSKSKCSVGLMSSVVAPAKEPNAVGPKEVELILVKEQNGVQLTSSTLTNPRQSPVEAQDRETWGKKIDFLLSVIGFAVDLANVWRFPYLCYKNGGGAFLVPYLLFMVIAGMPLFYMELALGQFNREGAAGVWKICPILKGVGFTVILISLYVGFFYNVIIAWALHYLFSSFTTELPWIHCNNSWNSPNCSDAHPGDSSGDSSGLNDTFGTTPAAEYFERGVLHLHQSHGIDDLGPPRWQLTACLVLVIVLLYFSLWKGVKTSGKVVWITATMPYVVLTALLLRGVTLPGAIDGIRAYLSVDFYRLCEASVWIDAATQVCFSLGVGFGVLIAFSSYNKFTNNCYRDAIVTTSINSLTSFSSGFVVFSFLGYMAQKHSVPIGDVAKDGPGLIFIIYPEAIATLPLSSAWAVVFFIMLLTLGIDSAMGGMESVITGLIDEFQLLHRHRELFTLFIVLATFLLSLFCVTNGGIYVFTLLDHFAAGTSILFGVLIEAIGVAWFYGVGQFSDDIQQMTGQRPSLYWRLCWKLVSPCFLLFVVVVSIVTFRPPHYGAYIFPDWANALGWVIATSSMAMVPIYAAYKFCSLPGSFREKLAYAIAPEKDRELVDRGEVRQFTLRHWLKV
Sequence of Histamine H2 receptor (P25021 whole entry): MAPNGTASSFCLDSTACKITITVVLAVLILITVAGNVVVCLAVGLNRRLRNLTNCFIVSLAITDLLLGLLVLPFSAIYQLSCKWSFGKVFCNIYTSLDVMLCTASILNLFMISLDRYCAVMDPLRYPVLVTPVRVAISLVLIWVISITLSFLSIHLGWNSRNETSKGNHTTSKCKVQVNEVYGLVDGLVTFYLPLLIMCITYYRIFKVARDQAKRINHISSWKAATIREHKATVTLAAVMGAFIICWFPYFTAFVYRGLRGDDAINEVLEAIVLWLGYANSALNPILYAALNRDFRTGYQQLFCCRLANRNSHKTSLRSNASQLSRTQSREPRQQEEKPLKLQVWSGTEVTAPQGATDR
Sequence of 3',5'-cyclic-AMP phosphodiesterase 4D (Q08499 whole entry): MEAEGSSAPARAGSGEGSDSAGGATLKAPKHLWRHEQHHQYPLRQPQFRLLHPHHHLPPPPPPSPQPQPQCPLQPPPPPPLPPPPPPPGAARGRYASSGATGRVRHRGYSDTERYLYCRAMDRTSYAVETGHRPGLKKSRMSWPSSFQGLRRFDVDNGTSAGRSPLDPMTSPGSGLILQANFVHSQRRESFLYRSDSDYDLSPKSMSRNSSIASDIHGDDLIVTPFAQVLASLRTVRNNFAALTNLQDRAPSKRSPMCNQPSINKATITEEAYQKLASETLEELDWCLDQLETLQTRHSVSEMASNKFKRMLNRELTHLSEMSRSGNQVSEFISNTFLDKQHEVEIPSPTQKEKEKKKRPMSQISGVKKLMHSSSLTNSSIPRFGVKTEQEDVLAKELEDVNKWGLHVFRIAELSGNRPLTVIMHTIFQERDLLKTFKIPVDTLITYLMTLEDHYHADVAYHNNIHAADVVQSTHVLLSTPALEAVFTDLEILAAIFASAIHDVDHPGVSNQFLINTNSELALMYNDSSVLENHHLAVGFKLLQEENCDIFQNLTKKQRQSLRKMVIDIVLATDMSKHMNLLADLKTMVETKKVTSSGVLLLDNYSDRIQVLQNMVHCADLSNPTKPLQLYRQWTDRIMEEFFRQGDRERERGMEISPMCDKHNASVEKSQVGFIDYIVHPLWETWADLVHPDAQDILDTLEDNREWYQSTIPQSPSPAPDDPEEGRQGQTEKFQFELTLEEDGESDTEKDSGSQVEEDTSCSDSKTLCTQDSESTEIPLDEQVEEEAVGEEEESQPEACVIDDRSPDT
Sequence of Sodium-dependent noradrenaline transporter (P23975 whole entry): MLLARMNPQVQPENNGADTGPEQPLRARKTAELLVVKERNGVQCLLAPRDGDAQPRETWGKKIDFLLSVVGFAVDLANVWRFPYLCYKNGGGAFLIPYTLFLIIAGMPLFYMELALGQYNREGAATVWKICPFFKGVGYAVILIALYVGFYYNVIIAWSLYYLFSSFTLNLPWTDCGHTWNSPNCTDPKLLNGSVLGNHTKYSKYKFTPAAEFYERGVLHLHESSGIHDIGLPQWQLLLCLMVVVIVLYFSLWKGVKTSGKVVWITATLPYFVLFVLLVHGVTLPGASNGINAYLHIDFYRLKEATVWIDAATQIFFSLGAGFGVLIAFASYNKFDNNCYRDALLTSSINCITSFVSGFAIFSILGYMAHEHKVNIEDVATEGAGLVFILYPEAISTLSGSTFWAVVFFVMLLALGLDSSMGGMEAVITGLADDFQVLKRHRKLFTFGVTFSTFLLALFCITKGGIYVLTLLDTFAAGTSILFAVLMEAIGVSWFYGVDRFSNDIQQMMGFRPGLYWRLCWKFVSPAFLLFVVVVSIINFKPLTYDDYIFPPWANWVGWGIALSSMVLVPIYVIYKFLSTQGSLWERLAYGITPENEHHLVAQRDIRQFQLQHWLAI
Sequence of Growth hormone secretagogue receptor type 1 (Q92847 whole entry): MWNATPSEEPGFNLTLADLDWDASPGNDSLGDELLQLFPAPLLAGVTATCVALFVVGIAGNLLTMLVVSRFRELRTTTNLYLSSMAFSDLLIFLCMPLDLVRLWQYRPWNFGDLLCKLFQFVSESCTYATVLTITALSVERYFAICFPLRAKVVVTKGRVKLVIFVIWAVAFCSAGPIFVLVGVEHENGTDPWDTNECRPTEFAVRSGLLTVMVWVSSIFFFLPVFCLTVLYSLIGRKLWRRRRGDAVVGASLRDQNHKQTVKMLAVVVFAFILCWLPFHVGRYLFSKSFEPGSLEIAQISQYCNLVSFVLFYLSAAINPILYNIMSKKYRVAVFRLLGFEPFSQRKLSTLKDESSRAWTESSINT

Row | SMILES | AC50 [1] | AC50 [2] | AC50 [3] | AC50 [4] | AC50 (B2 bradykinin receptor) | AC50 [5] | AC50 [6] | AC50 [7] | AC50 [8] | AC50 (Histamine H2 receptor)
1 | CCCCC[C@H](O)/C=C/[C@H]1[C@H](O)CC(=O)[C@@H]1C/C=C\CCCC(=O)O [DINOPROSTONE] | > 30 µM | > 30 µM | > 30 µM | > 30 µM | > 30 µM | 11 µM | > 30 µM | > 30 µM | > 30 µM | > 30 µM
2 | CN(c1nccc(=O)[nH]1)C1CCN(c2nc3ccccc3n2Cc2ccc(F)cc2)CC1 [MIZOLASTINE] | > 30 µM | > 10 µM | > 30 µM | > 30 µM | > 30 µM | 13 µM | > 30 µM | > 30 µM | > 30 µM | > 30 µM
3 | CCn1cc(C(=O)O)c(=O)c2cc(F)c(N3CCN(C)CC3)cc21 [PEFLOXACIN] | > 30 µM | > 30 µM | > 30 µM | > 30 µM | > 30 µM | > 30 µM | > 30 µM | > 30 µM | > 30 µM | > 30 µM
4 | CCN(CC)CC(=O)Oc1ccc(NC(C)=O)cc1 [PROPACETAMOL] | > 30 µM | > 30 µM | > 30 µM | > 30 µM | > 30 µM | > 30 µM | > 30 µM | > 30 µM | > 30 µM | > 30 µM
5 | COC1=C(OC)C(=O)C(CCCCCCCCCCO)=C(C)C1=O [IDEBENONE] | > 10 µM | > 10 µM | > 30 µM | > 10 µM | > 30 µM | > 10 µM | > 30 µM | > 10 µM | > 30 µM | > 10 µM
6 | CCCC(C)(COC(N)=O)COC(=O)NC(C)C (stereo not given) [CARISOPRODOL] | > 10 µM | > 30 µM | > 30 µM | > 30 µM | > 30 µM | > 30 µM | > 30 µM | > 10 µM | > 30 µM | > 10 µM
7 | O=C(CCCN1CCC(n2c(O)nc3ccccc32)CC1)c1ccc(F)cc1 [BENPERIDOL] | 12 µM | 13 µM | 17 µM | > 30 µM | > 30 µM | > 30 µM | > 30 µM | 11 µM | > 30 µM | > 30 µM
8 | COc1cc(OC)c(C(=O)CCCN2CCCC2)c(OC)c1 [BUFLOMEDIL] | > 30 µM | > 30 µM | > 30 µM | > 30 µM | > 30 µM | > 30 µM | > 30 µM | > 30 µM | > 30 µM | > 30 µM
9 | C#C[C@]1(O)CC[C@H]2[C@@H]3CCC4=CC(=O)CCC4=C3C=C[C@@]21CC [GESTRINONE] | > 30 µM | > 30 µM | > 30 µM | > 30 µM | > 30 µM | 4.1 µM | > 30 µM | 25 µM | > 30 µM | > 30 µM
10 | CC(NCCc1ccc(O)cc1)C(O)c1ccc(O)cc1 (stereo not given) [RITODRINE] | 23 µM and 37.6 µM | > 30 µM | > 30 µM | > 30 µM | > 30 µM | > 30 µM | > 30 µM | 19.5 µM and 12.3 µM | > 30 µM | > 30 µM
11 | Cc1cc2nc3c(=O)[nH]c(=O)nc-3n(C[C@H](O)[C@H](O)[C@H](O)COP(=O)(O)O)c2cc1C [RIBOFLAVIN 5'-PHOSPHATE] | > 30 µM | 24 µM | > 30 µM | > 30 µM | > 30 µM | > 30 µM | > 30 µM | > 30 µM | 12 µM | > 30 µM
12 | CC(=O)OCC(CCn1cnc2cnc(N)nc21)COC(C)=O [FAMCICLOVIR] | > 10 µM | > 30 µM | > 30 µM | > 30 µM | > 30 µM | > 30 µM | > 30 µM | > 10 µM | > 30 µM | > 10 µM
13 | O=C1CN=C(c2ccccc2)c2cc(Cl)ccc2N1 [NORDAZEPAM] | > 10 µM | > 30 µM | > 30 µM | > 10 µM | > 30 µM | 12 µM | > 30 µM | > 10 µM | > 30 µM | > 10 µM
